Measurements from PMC4405286, “Extracellular vesicle sorting of α-Synuclein is regulated by sumoylation” (Acta Neuropathologica, 2015).
Like-named read-outs stand apart in the source and are kept apart here.

Molecular target: T1, SUMO-2 (Homo sapiens, UniProt P55854)
T1 construct: gene SUMO3; recombinant, untagged as far as told, pET11, E. coli (NMR, 15N-labelled); for titrations single Cys labelled with MFM probe
Assay: fluorescence titration of MFM-labelled protein with SUVs, global fit
Type: binding

[1] = SUVs POPC:POPS:PI 85:10:5, too weak to be determined, bound set by POPS, acyl chains not given, MFM-labelled protein, 25 mM Na-HEPES, 100 mM KCl, pH 7.26, room temperature

T1 sequence (P55854 1-92): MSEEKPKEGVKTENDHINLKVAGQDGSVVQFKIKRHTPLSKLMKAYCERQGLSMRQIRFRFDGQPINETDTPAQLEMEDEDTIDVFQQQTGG

Kd [1] [µM] | Compound | also measured
> 7 | PI(4,5)P2 | –
> 7 | PI(5)P | –
– | PI(3)P | Kd (lipid in SUVs POPC:POPS:PI 85:10:5, per-lipid Kd from global fit, includes binding stoichiometry, acyl chains not given, MFM-labelled protein, 25 mM Na-HEPES, 100 mM KCl, pH 7.26, room temperature): ~4 µM
– | CCCCCCCC/C=C\CCCCCCCC(=O)O[C@H](COC(=O)CCCCCCCCCCCCCCC)COP(=O)([O-])OCC[N+](C)(C)C [POPC, 1-palmitoyl,2-oleoyl-sn-glycero-3-phosphocholine] | Kd: 180 ± 42 µM
> 7 | PI(3,5)P2 | –
